{
  "source": "patent US9279806B2",
  "about": "“Water-soluble AIE luminogens for monitoring and retardation of fibrillation of amyloid proteins” (THE HONG KONG UNIVERSITY OF SCIENCE AND TECHNOLOGY, priority 2005, dated 2016)",
  "key": {"[1]": {"target": "Bovine serum albumin (BSA) (Bos taurus, UniProt P02769)", "sequence (P02769 25-607)": "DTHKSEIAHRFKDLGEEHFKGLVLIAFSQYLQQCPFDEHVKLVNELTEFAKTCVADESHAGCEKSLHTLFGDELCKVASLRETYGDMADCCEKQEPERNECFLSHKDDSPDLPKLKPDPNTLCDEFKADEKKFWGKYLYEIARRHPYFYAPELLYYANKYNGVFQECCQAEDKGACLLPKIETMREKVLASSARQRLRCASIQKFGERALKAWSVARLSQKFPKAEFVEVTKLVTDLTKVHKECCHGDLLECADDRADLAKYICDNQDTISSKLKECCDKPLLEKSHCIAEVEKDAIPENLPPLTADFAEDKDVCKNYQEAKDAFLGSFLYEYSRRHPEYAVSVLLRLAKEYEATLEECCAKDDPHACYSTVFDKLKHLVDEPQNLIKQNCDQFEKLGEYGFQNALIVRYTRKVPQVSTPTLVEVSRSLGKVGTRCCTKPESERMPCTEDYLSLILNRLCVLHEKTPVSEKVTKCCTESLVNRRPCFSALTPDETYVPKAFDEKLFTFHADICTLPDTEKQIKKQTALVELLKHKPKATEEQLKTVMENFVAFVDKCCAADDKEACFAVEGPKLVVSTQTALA", "test": "Fluorimetric titration of BSA to polyenes", "assay_type": "binding", "protocol": "Fluorimetric titration of biomacromolecules to polyenes Bovine serum albumin (BSA) and calf thymus DNA (ctDNA) were selected as model proteins and DNA. BSA was dissolved in a pH 7.0 phosphate buffer solution (1.0 mg/ml). DNA was dissolved in deionized water (1.0 mg/ml) and filtered through a 0.45 μm filter. The actual concentration (in nucleic base) was determined by UV photometry using the extinction coefficient ε260=6600 M^−1 cm^−1.\nStock solutions of polyenes were 5×10^−4 M in water. Fluorescence titration was carried out by sequentially adding 100 μl aliquots of DNA or BSA solutions to a 100 μl stock solution of polyenes, followed by adding an aqueous phosphate buffer (10 mM, pH 7) to acquire a 10.00 ml solution. The mixtures were stirred for half an hour prior to taking their spectra.\nComplexation of the water-soluble AIE TPEs 3 and 4 with calf thymus DNA (ctDNA) and bovine serum albumin (BSA) were investigated by spectrometric titrations in aqueous phosphate buffer (pH=7.0) at 25 C. Stock solutions of TPEs 3 and 4 (0.25 mM) were prepared."}, "[2]": {"test": "Photophysical properties in solution and aggregate states (AIE effect)", "assay_type": "physicochemical", "details": "for Emission maximum wavelength (λem): excitation 350 nm"}, "[3]": {"tested_on": "lysozyme", "test": "FL during lysozyme fibril formation", "details": "10, 50 and 100 μM, over 4 days"}, "[4]": {"tested_on": "heparin, apoferritin, cellulose, papain, native and fibrillar insulin", "test": "FL specificity against other protein monomers", "details": "protein 1.0 mg/mL"}, "[5]": {"target": "amyloid-β-peptide (Homo sapiens, UniProt P05067)", "sequence (P05067 672-711 limits assumed)": "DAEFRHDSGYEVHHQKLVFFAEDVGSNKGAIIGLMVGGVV", "test": "FL with amyloid-β-peptide before and after aging", "details": "0.1 mg/mL amyloid-β-peptide, λex 350 nm"}, "[6]": {"details": "aggregate: 99% water/AN for TPE-OMe and TPE-OH, 99% AN/water for TPE-SO3"}, "[7]": {"details": "solution: acetonitrile for TPE-OMe and TPE-OH (10 μM), water for TPE-SO3 (5 μM)"}},
  "data": [
    {"substance": "1,2-Diphenyl-1,2-bis(4,4′-(3-sulfonato)propoxyl)phenylethylene [TPE-SO3]", "values": [
      {"measurement": "ΦE (quantum yield), bind", "setting": "[1]; BSA solution of TPE-OH•Na2 or TPE-SO3 in aqueous phosphate buffer pH 7.0", "result": 58.2, "unit": "%"},
      {"measurement": "λex (emission maximum), bind", "setting": "[1]; BSA solution of TPE-OH•Na2 or TPE-SO3 in aqueous phosphate buffer pH 7.0, excitation 350 nm", "result": 472, "unit": "nm"},
      {"measurement": "FL intensity increase upon binding with BSA", "setting": "[1]; aqueous phosphate buffer, 472 nm", "result": "up to 240 times"},
      {"measurement": "ΦE (quantum yield), aggr", "setting": "[2]; [6]", "result": 17.47, "unit": "%"},
      {"measurement": "λab (absorption maximum), aggr", "setting": "[2]; [6]", "result": 320, "unit": "nm"},
      {"measurement": "Emission maximum wavelength (λem)", "setting": "[2]; [6]", "result": 442, "unit": "nm"},
      {"measurement": "ΦE (quantum yield), soln", "setting": "[2]; [7]", "result": 0.37, "unit": "%"},
      {"measurement": "λab (absorption maximum), soln", "setting": "[2]; [7]", "result": 312, "unit": "nm"},
      {"measurement": "Emission maximum wavelength (λem)", "setting": "[2]; [7]", "result": 398, "unit": "nm"},
      {"measurement": "Fluorescence profile during lysozyme fibril formation", "setting": "[3]", "result": "produces fluorescence profile corresponding to lysozyme fibrillation"},
      {"measurement": "FL with fibrillar insulin", "setting": "[4]", "result": "significantly higher than other cellular proteins tested"},
      {"measurement": "FL with heparin, apoferritin and cellulose", "setting": "[4]", "result": "comparable to TPE-SO3 solution alone"},
      {"measurement": "FL with papain", "setting": "[4]", "result": "comparable to native insulin monomer"},
      {"measurement": "Emission on formation of amyloid-β-peptide fibrils (after aging)", "setting": "[5]", "result": "increases dramatically"}
    ]}
  ]
}
